Assay results taken from patent publication US20110217300A1, “Quinazolinone Compounds and Methods of Use Thereof” (priority 2007, published 2011).
Read-outs that look alike come from different tables or passages of the source.

Columns and labels:
HsEg5 = target: T1, HsEg5 (Homo sapiens, UniProt P52732); test: Fluorescence detection of HsEg5 ATPase activity (ADP Quest, automated); assay type: biochemical
T1 sequence (P52732 18-359 limits assumed): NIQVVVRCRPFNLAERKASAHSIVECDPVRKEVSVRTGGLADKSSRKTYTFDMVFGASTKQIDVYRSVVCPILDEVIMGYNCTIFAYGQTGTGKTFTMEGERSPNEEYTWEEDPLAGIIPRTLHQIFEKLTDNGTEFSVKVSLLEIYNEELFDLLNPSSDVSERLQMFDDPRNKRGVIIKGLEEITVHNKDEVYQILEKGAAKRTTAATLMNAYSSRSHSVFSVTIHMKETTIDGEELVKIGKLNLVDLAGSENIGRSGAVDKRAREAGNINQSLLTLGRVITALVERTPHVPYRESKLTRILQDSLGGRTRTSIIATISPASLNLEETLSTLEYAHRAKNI
Procedure: Purified HsEg5 motor fragment was activated by mixture with preformed MT polymer (Cytoskeleton, Denver, Colo.) at room temperature for 20 minutes. MT activated ATPase activity was measured using ADP Quest (DiscoverX, Fremont, Calif.) in which a coupled-enzyme assay can translate accumulation of ADP into detectable resorufin signal (FIG. 1A). Fluorescence was measured at λEx=535 nm and λEm=590 nm on a Wallac Victor 2 plate reader (Perkin-Elmer Life Sciences, Boston, Mass.). Reagent A and B from ADP Quest kit were aliquoted and frozen in −20° C. before use. A standard curve was determined using the provided ADP reagent in the reaction buffer that consisted of 50 mM Pipes (pH7.0), 5.0 mM MgCl2, 20 μM paclitaxel and […]. The same buffer was used for Km determination with HsEg5 concentration of 10 nM.
For inhibitor screening, 4 μL of compounds were incubated with 10 μL of MT-activated HsEg5 such that the final concentrations for compound range from 100 μM to 5 nM (1 to 3 serial dilutions, final concentration) and final concentration for HsEg5 is 10 nM. The mixture was incubated at room temperature for 10 minutes with mild shaking. The screening assay contained 0.3% DMSO in all reaction wells. We used wells containing only DMSO as negative controls and wells without ATP as background. Addition of 6 μL ATP (final concentration of 20 μM) initiated the ATP hydrolysis reaction. The 20 μL-reaction was allowed to proceed at room temperature for 10 minutes before addition of 10 μL of reagent A and 20 μL of reagent B. After 20-minute development at room temperature, the fluorescence was measured and data analysis was performed using GraphPad Prism version 3.0 (GraphPad Software, San Diego, Calif.)
For the purpose of high-throughput screening, we automated the fluorescence assay using a Sciclone ALH3000 (Caliper Life Sciences, Hopkinton, Mass.) and Multidrop 384 (Thermo Electron Corp, Waltham, Mass.). First, compound dilution plates for screening (at 10 μM or 1 μM) and ICso determination (10 data points from 100 μM to 5 nM) were made in Corning polypropylene V-bottom 96-well plates. In both cases, the 1st and 7th column contained background (No ATP addition) and negative control (DMSO only). For screening compounds at 10 μM or 1 μM, […] of each compound at 50 μM or 5 μM were used in a 20 μL assay reaction. For IC50 determination, the mother compound plate contained 24 μL of tested compound at stock concentration of 30 mM. 6 μL of each test compound in 30 mM was added to each well in the column 2 and followed by 1:3 serial dilutions in DMSO with the Sciclone ALH3000. 234 μL of assay buffer was then added using a Multidrop 384. Then 4 μL of diluted compounds was used in 20 μL-reaction. The final concentration was a 1:300 dilution of the original stock. Second, a reagent source plate was prepared with three rows designated to MT-activated HsEg5, Reagent A and Reagent B respectively. MTs were diluted with assay buffer and polymerized at room temperature for 10 minutes. Just before use, HsEg5 protein was thawed on ice and activated by addition of MT polymers at room temperature for 20 minutes. HsEg5/MT was then added to Row A of the reagent source plate. The final assay concentration was 10 nM HsEg5 and 500 nM MTs. Reagent A and B were stored at −20° C. and thawed at room temperature followed by transferring to rows B & C of the reagent source plate. Third, ATP substrate plate was prepared by transferring 80 μM ATP solution to each well of a V-shape 96-well plate except the wells in the first row where assay buffer was added instead to have no-ATP blanks. The final concentration for ATP in the assay was 20 μM.
The assay was programmed on Sciclone ALH3000 with the following procedures: 1) Addition of 4 μL compounds to the assay plate, followed by addition of 10 μL of MT-activated HsEg5. […]

NCI-H460 = test: MTS cell viability assay; assay type: cell-based, human; conditions: Homo sapiens, NCI-H460, 72 h
Procedure: Cell viability was determined by measuring the activity of dehydrogenase enzymes in metabolically active cells using a tetrazolium compound, MTS. The assay was performed as described in Promega Technical Bulletin No. 169 (CellTiter 96 Aqueous Non-Radioactive Cell Proliferation Assay). Two human cancer cell lines were assayed (see, Table 1). Cells were maintained at 37° C. and 5% CO2 in DMEM media (4.5 g/L glucose) supplemented with 10% heat-inactivated FBS, 10 mM L-glutamine, and 10 mM Hepes pH 7.5. Briefly, cells were seeded in 96-well plates as set forth in Table 1 and incubated for 16-24 hours. Candidate compounds were serially diluted in DMSO, further diluted in cell culture media, and then added to cells (final DMSO concentration of 0.33%). Cells were incubated in the presence of candidate compound for 72 hours. MTS stock solution (MTS 2 gm/L, PMS […] in PBS) was added to the cells (final concentration MTS […] and PMS 7.67 mg/L) and incubated for 4 hours. SDS was added to a final concentration of 1.4% and absorbance at 490 nm was measured within two hours using a plate reader. […] GI50 values were given in Table 2 for the compounds listed. The Compound Numbers in Table 2 correspond to the numbers listed parenthetically in the Example titles. Where multiple measurements were made by different technicians, both values are given.
Cell viability was determined for N-(3-amino-propyl)-3-chloro-N—[(R)-1-(7-chloro-4-oxo-3-phenylamino-3,4-dihydro-quinazolin-2-yl)-but-3-ynyl]-2-fluoro-benzamide (compound I of Table 2). The cell viability assay of Example 105 was used. GI50 was determined using a variety of cell lines. Cells were plated at 100-5000 cells per well. At least 2 replicates were performed. Where multiple measurements were made by different technicians, both values are given.

A549 = test: MTS cell viability assay; assay type: cell-based; conditions: Homo sapiens, A549 non small cell lung, 72 hours, read-out: MTS NCI A549 GI50
Procedure: Two human cancer cell lines were assayed (see, Table 1). Cells were maintained at 37° C. and 5% CO2 in DMEM media (4.5 g/L glucose) supplemented with 10% heat-inactivated FBS, 10 mM L-glutamine, and 10 mM Hepes pH 7.5. Briefly, cells were seeded in 96-well plates as set forth in Table 1 and incubated for 16-24 hours. Candidate compounds were serially diluted in DMSO, further diluted in cell culture media, and then added to cells (final DMSO concentration of 0.33%). Cells were incubated in the presence of candidate compound for 72 hours. […] The Compound Numbers in Table 2 correspond to the numbers listed parenthetically in the Example titles.

[1] = read-out: MTS NCI H460 GI50, NCI-H460 non small cell lung, 72 hours

| SMILES | IC50 (HsEg5) | GI50 (NCI-H460; [1]) | GI50 (A549; A549, 72 h) | GI50 (NCI-H460; read-out: MTS NCI H460 GI50) | GI50 (A549) |
| --- | --- | --- | --- | --- | --- |
| CCC(c1nc2cc(Cl)ccc2c(=O)n1Nc1ccccc1)N(CCCN)C(=O)c1ccc(Cl)c(Cl)c1 (stereo not drawn) [Compound 6, N-(3-Aminopropyl)-N-[1-(3-anilino-7-chloro-4-oxo-3,4-dihydroquinazolin-2-yl)propyl]-3,4-dichlorobenzamide] | 418 nM | 1160 nM | 1870 nM | – | – |
| CCC(c1nc2cc(Cl)ccc2c(=O)n1Nc1ccccc1)N(CCCN)C(=O)c1cccc(F)c1F (stereo not drawn) [Compound 7, N-(3-Aminopropyl)-N-[1-(3-anilino-7-chloro-4-oxo-3,4-dihydroquinazolin-2-yl)propyl]-2,3-difluorobenzamide] | 566 nM | – | – | 1770 nM | 2570 nM |
| CCC(c1nc2cc(Cl)ccc2c(=O)n1Nc1ccccc1)N(CCCN)C(=O)c1ccc(F)cc1 (stereo not drawn) [Compound 8, N-(3-Aminopropyl)-N-[1-(3-anilino-7-chloro-4-oxo-3,4-dihydroquinazolin-2-yl)propyl]-4-fluorobenzamide] | 2130 nM | 2830 nM | 4750 nM | – | – |
| CCC(c1nc2cc(Cl)ccc2c(=O)n1Nc1ccccc1)N(CCCN)C(=O)c1ccc(F)c(F)c1 (stereo not drawn) [Compound 9, N-(3-Aminopropyl)-N-[1-(3-anilino-7-chloro-4-oxo-3,4-dihydroquinazolin-2-yl)propyl]-3,4-difluorobenzamide] | 1160 nM | 2390 nM | 3570 nM | – | – |
| CCC(c1nc2cc(Cl)ccc2c(=O)n1Nc1ccccc1)N(CCCN)C(=O)c1ccc(F)c(F)c1F (stereo not drawn) [Compound 10, N-(3-Aminopropyl)-N-[1-(3-anilino-7-chloro-4-oxo-3,4-dihydroquinazolin-2-yl)propyl]-2,3,4-trifluorobenzamide] | 599 nM | 1140 nM | 2360 nM | – | – |
| CCC(c1nc2cc(Cl)ccc2c(=O)n1Nc1ccccc1)N(CCCN)C(=O)c1cc(Cl)cc(Cl)c1 (stereo not drawn) [Compound 11, N-(3-Aminopropyl)-N-[1-(3-anilino-7-chloro-4-oxo-3,4-dihydroquinazolin-2-yl)propyl]-3,5-dichlorobenzamide] | 735 nM | – | – | 2440 nM | 3010 nM |
| CCC(c1nc2cc(Cl)ccc2c(=O)n1Nc1ccccc1)N(CCCN)C(=O)c1cccc(Cl)c1Cl (stereo not drawn) [Compound 12, N-(3-Aminopropyl)-N-[1-(3-anilino-7-chloro-4-oxo-3,4-dihydroquinazolin-2-yl)propyl]-2,3-dichlorobenzamide] | 818 nM | – | – | 2110 nM | 3370 nM |
| CCC(c1nc2cc(Cl)ccc2c(=O)n1Nc1ccccc1)N(CCCN)C(=O)c1ccc(F)c(Cl)c1 (stereo not drawn) [Compound 13, N-(3-Aminopropyl)-N-[1-(3-anilino-7-chloro-4-oxo-3,4-dihydroquinazolin-2-yl)propyl]-3-chloro-4-fluorobenzamide] | 749 nM | – | – | 2210 nM | 3570 nM |
| CCC(c1nc2cc(Cl)ccc2c(=O)n1Nc1ccccc1)N(CCCN)C(=O)c1cccc(Br)c1 (stereo not drawn) [Compound 14, N-(3-Aminopropyl)-N-[1-(3-anilino-7-chloro-4-oxo-3,4-dihydroquinazolin-2-yl)propyl]-3-bromobenzamide] | 1000 nM | – | – | 3250 nM | 3440 nM |
| CCC(c1nc2cc(Cl)ccc2c(=O)n1Nc1ccccc1)N(CCCN)C(=O)c1ccc(I)cc1 (stereo not drawn) [Compound 15, N-(3-Aminopropyl)-N-[1-(3-anilino-7-chloro-4-oxo-3,4-dihydroquinazolin-2-yl)propyl]-4-iodobenzamide] | 1650 nM | 2270 nM | 3080 nM | – | – |
| CCC(c1nc2cc(Cl)ccc2c(=O)n1Nc1ccccc1)N(CCCN)C(=O)c1ccc(C)c(F)c1 (stereo not drawn) [Compound 16, N-(3-Aminopropyl)-N-[1-(3-anilino-7-chloro-4-oxo-3,4-dihydroquinazolin-2-yl)propyl]-3-fluoro-4-methylbenzamide] | 1150 nM | – | – | 929 nM | 1360 nM |
| CCC(c1nc2cc(Cl)ccc2c(=O)n1Nc1ccccc1)N(CCCN)C(=O)c1c(F)ccc(C)c1F (stereo not drawn) [Compound 17, N-(3-Aminopropyl)-N-[1-(3-anilino-7-chloro-4-oxo-3,4-dihydroquinazolin-2-yl)propyl]-2,6-difluoro-3-methylbenzamide] | 1600 nM | 1590 nM | 2560 nM | – | – |
| CCC(c1nc2cc(Cl)ccc2c(=O)n1Nc1ccccc1)N(CCCN)C(=O)c1ccc(F)c(C)c1 (stereo not drawn) [Compound 18, N-(3-Aminopropyl)-N-[1-(3-anilino-7-chloro-4-oxo-3,4-dihydroquinazolin-2-yl)propyl]-4-fluoro-3-methylbenzamide] | 1250 nM | 2500 nM | 3920 nM | – | – |
| CCC(c1nc2cc(Cl)ccc2c(=O)n1Nc1ccccc1)N(CCCN)C(=O)c1cccc(Cl)c1F (stereo not drawn) [Compound 19, N-(3-Aminopropyl)-N-[1-(3-anilino-7-chloro-4-oxo-3,4-dihydroquinazolin-2-yl)propyl]-3-chloro-2-fluorobenzamide] | 582 nM | – | – | 894 nM | 1570 nM |
